We go through 29 compounds from US20100105655A1, “NOVEL COMPOUNDS 515” (ASTRAZENECA AB, priority 2008, published 2010).

For the assay, the target named is T1, IGFR kinase (Homo sapiens, UniProt P08069).
T1 construct: purchased Millipore
In words: Enzyme assay (c), IGFR kinase, Caliper LabChip. The settings on record: 30 nM IGFR kinase, 6 uM ATP, 3 uM peptide mix; read-out: IGFR IC50. The assay is classed as biochemical.

T1 sequence (P08069 31-1367): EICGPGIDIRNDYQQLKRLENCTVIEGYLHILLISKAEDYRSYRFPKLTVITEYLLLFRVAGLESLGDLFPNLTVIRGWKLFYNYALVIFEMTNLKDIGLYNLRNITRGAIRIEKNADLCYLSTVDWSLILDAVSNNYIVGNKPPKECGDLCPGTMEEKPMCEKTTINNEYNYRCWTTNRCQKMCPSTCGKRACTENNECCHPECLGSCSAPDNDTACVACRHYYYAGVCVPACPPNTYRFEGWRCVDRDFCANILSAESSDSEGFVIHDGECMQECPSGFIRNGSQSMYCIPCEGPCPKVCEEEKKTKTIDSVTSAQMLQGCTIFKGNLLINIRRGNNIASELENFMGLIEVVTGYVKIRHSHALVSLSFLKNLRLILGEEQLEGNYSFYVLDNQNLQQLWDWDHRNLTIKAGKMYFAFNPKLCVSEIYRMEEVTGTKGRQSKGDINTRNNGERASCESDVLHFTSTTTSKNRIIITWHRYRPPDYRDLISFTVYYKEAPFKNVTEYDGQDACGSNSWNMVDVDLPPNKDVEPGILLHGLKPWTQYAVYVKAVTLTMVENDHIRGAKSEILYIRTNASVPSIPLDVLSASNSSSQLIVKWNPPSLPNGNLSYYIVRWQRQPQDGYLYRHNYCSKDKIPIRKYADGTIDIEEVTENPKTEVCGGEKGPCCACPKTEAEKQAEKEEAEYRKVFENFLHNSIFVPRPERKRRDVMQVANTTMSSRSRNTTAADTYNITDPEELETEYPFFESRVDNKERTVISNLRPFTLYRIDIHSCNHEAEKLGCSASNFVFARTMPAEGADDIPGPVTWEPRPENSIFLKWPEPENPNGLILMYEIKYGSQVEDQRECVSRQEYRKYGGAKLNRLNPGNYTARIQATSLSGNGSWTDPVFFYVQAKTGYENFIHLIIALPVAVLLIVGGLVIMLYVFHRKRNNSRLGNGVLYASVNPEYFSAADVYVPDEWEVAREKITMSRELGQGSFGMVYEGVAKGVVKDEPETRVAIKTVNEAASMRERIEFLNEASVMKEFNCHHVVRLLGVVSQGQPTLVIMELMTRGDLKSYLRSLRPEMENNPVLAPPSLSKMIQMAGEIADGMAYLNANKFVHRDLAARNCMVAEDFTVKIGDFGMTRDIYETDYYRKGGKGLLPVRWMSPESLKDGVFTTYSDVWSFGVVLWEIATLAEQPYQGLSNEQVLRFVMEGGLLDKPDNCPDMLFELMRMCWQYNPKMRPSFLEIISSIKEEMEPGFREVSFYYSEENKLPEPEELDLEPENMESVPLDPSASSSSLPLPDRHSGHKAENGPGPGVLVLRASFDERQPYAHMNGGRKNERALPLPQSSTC

On to `COc1cc(C2CCN(C(=O)CO)CC2)ccc1Nc1ncc(Cl)c(-c2cnn3ccccc23)n1` [Example 137, 1-[4-[4-[(5-chloro-4-pyrazolo[1,5-a]pyridin-3-yl-pyrimidin-2-yl)amino]-3-methoxy-phenyl]-1-piperidyl]-2-hydroxy-ethanone], for which the IC50 – broadly, the concentration at which inhibition is half-maximal – is 0.003 µM.

Regarding `COc1cc(CC(=O)N2CCN(CCO)CC2)ccc1Nc1ncc(Cl)c(-c2cnc3ccccn23)n1` [Example 37, 2-[4-[(5-chloro-4-imidazo[1,2-a]pyridin-3-yl-pyrimidin-2-yl)amino]-3-methoxy-phenyl]-1-[4-(2-hydroxyethyl)piperazin-1-yl]ethanone], the half-inhibitory concentration (IC50) is 0.031 µM.

With `COc1cc(N2CCN(CCO)[C@H](C)C2)ccc1Nc1ncc(F)c(-c2cnc3ccccn23)n1` [Example 272, 2-[(2R)-4-[4-[(5-fluoro-4-imidazo[1,2-a]pyridin-3-yl-pyrimidin-2-yl)amino]-3-methoxy-phenyl]-2-methyl-piperazin-1-yl]ethanol], the IC50 is 0.27 µM.

Turning to `COc1cc(N2CCN(C(=O)C3(O)CC3)CC2)ccc1Nc1ncc(Cl)c(-c2cnc3ccccn23)n1` [Example 22, [4-[4-[(5-chloro-4-imidazo[1,2-a]pyridin-3-yl-pyrimidin-2-yl)amino]-3-methoxy-phenyl]piperazin-1-yl]-(1-hydroxycyclopropyl)methanone], the 50% inhibitory concentration (IC50) is 0.015 µM.

Turning to `COc1cc(N2CC[C@@H](O)C2)ccc1Nc1ncc(F)c(-c2cnc3ccccn23)n1` [Example 85, (3R)-1-[4-[(5-fluoro-4-imidazo[1,2-a]pyridin-3-yl-pyrimidin-2-yl)amino]-3-methoxy-phenyl]pyrrolidin-3-ol], the IC50 was determined as 0.034 µM.

Turning to `COc1cc(N2CCN(CCO)[C@@H](C)C2)ccc1Nc1ncc(C)c(-c2cnc3ccccn23)n1` [Example 271, 2-[(2S)-4-[4-[(4-imidazo[1,2-a]pyridin-3-yl-5-methyl-pyrimidin-2-yl)amino]-3-methoxy-phenyl]-2-methyl-piperazin-1-yl]ethanol], the IC50 worked out at 0.19 µM.

As to `COc1cc(N2CCN(C(=O)[C@@H](C)O)CC2)ccc1Nc1ncc(Cl)c(-c2cnc3c(F)cccn23)n1` [Example 178, (2R)-1-[4-[4-[[5-chloro-4-(8-fluoroimidazo[1,2-a]pyridin-3-yl)pyrimidin-2-yl]amino]-3-methoxy-phenyl]piperazin-1-yl]-2-hydroxy-propan-1-one], the half-maximal inhibitory concentration (IC50) is 0.015 µM.

Turning to `COc1cc(N2CCN(C(=O)[C@@H](C)N)CC2)ccc1Nc1ncc(Cl)c(-c2cnc3ccc(F)cn23)n1` [Example 252, (2R)-2-amino-1-[4-[4-[[5-chloro-4-(6-fluoroimidazo[1,2-a]pyridin-3-yl)pyrimidin-2-yl]amino]-3-methoxy-phenyl]piperazin-1-yl]propan-1-one], the 50% inhibitory concentration (IC50) was 0.007 µM.

Consider `COc1cc(N2CC3CN(CCO)CC(C2)O3)ccc1Nc1ncc(Cl)c(-c2cnn3ccccc23)n1` [Example 150, 2-[7-[4-[(5-chloro-4-pyrazolo[1,5-a]pyridin-3-yl-pyrimidin-2-yl)amino]-3-methoxy-phenyl]-9-oxa-3,7-diazabicyclo[3.3.1]nonan-3-yl]ethanol], for which the half-inhibitory concentration (IC50) is 0.005 µM.

`CNCC(=O)N1CCN(c2ccc(OC)c(Nc3ncc(C)c(-c4cnn5ccccc45)n3)c2)CC1` [Example 167, 1-[4-[4-methoxy-3-[(5-methyl-4-pyrazolo[1,5-a]pyridin-3-yl-pyrimidin-2-yl)amino]phenyl]piperazin-1-yl]-2-(methylamino)ethanone]: the IC50 stood at 0.049 µM.

With `COc1cc(OC2CN(C(=O)N(C)C)C2)ccc1Nc1ncc(Cl)c(-c2cnc3ccccn23)n1` [Example 69, 3-[4-[(5-chloro-4-imidazo[1,2-a]pyridin-3-yl-pyrimidin-2-yl)amino]-3-methoxy-phenoxy]-N,N-dimethyl-azetidine-1-carboxamide], the IC50 came to 0.032 µM.

Turning to `COc1cc(N2CC3CN(C(CO)CO)CC(C2)O3)ccc1Nc1ncc(Cl)c(-c2cnn3ccccc23)n1` [Example 242, 2-[7-[4-[(5-chloro-4-pyrazolo[1,5-a]pyridin-3-yl-pyrimidin-2-yl)amino]-3-methoxy-phenyl]-9-oxa-3,7-diazabicyclo[3.3.1]nonan-3-yl]propane-1,3-diol], the IC50 turned out to be 0.74 µM.

For the compound `COc1cc(N2CCN(CC(=O)N3CCOCC3)CC2)ccc1Nc1ncc(Cl)c(-c2cnc3ccccn23)n1` [Example 3.3, 2-[4-[4-[(5-chloro-4-imidazo[1,2-a]pyridin-3-yl-pyrimidin-2-yl)amino]-3-methoxy-phenyl]piperazin-1-yl]-1-morpholino-ethanone], the IC50 was determined as 0.011 µM.

With `COc1cc(N2CCN(S(=O)(=O)N(C)C)CC2)ccc1Nc1ncc(F)c(-c2cnc3ccccn23)n1` [Example 74, 4-[4-[(5-fluoro-4-imidazo[1,2-a]pyridin-3-yl-pyrimidin-2-yl)amino]-3-methoxy-phenyl]-N,N-dimethyl-piperazine-1-sulfonamide], the half-inhibitory concentration (IC50) was found to be 0.042 µM.

As for `COc1cc(C2CCN(C(=O)[C@H](C)OC)CC2)ccc1Nc1ncc(Cl)c(-c2cnc3ccccn23)n1` [Example 28.3, (2S)-1-[4-[4-[(5-chloro-4-imidazo[1,2-a]pyridin-3-yl-pyrimidin-2-yl)amino]-3-methoxy-phenyl]-1-piperidyl]-2-methoxy-propan-1-one], the half-inhibitory concentration (IC50) came to 0.006 µM.

As to `COc1cc(N2CCN(C(=O)[C@@H](C)O)CC2)ccc1Nc1ncc(Cl)c(-c2cnc3c(F)cc(F)cn23)n1` [Example 256, (2R)-1-[4-[4-[[5-chloro-4-(6,8-difluoroimidazo[1,2-a]pyridin-3-yl)pyrimidin-2-yl]amino]-3-methoxy-phenyl]piperazin-1-yl]-2-hydroxy-propan-1-one], the 50% inhibitory concentration (IC50) was determined as 0.005 µM.

Regarding `COc1cc(N2CCN(C[C@@H](O)CO)CC2)ccc1Nc1ncc(Cl)c(-c2cnc3ccccn23)n1` [Example 53, (2R)-3-[4-[4-[(5-chloro-4-imidazo[1,2-a]pyridin-3-yl-pyrimidin-2-yl)amino]-3-methoxy-phenyl]piperazin-1-yl]propane-1,2-diol], the half-maximal inhibitory concentration (IC50) came to 0.008 µM.

On to `COc1cc(O[C@@H]2CCN(C(=O)[C@H](C)O)C2)ccc1Nc1ncc(Cl)c(-c2cnc3ccccn23)n1` [Example 12A, (2S)-1-[(3R)-3-[4-[(5-chloro-4-imidazo[1,2-a]pyridin-3-yl-pyrimidin-2-yl)amino]-3-methoxy-phenoxy]pyrrolidin-1-yl]-2-hydroxy-propan-1-one], for which the IC50 was 0.013 µM.

Regarding `COc1cc(CN2CCC(C(N)=O)CC2)ccc1Nc1ncc(Cl)c(-c2cnc3ccccn23)n1` [Example 21.7, 1-[[4-[(5-chloro-4-imidazo[1,2-a]pyridin-3-yl-pyrimidin-2-yl)amino]-3-methoxy-phenyl]methyl]piperidine-4-carboxamide], the concentration for half-maximal inhibition (IC50) is 0.031 µM.

Regarding `COc1cc(N2CCN(C(C)=O)CC2)ccc1Nc1ncc(C(F)(F)F)c(-c2cnc3ccccn23)n1` [Example 107, 1-[4-[4-[[4-imidazo[1,2-a]pyridin-3-yl-5-(trifluoromethyl)pyrimidin-2-yl]amino]-3-methoxy-phenyl]piperazin-1-yl]ethanone], the IC50 was determined as 0.015 µM.

As for `COc1cc(N(C)CCN(C)CCO)ccc1Nc1ncc(Cl)c(-c2cnc3c(F)cccn23)n1` [Example 221, 2-[2-[4-[[5-chloro-4-(8-fluoroimidazo[1,2-a]pyridin-3-yl)pyrimidin-2-yl]amino]-3-methoxy-N-methyl-anilino]ethyl-methyl-amino]ethanol], the IC50 was found to be 0.01 µM.

Consider `COc1cc(N2CCN(C(=O)[C@@H](N)CO)CC2)ccc1Nc1ncc(Cl)c(-c2cnc3ccccn23)n1` [Example 24.7, (2S)-2-amino-1-[4-[4-[(5-chloro-4-imidazo[1,2-a]pyridin-3-yl-pyrimidin-2-yl)amino]-3-methoxy-phenyl]piperazin-1-yl]-3-hydroxy-propan-1-one], for which the half-inhibitory concentration (IC50) was 0.005 µM.

For the compound `COc1cc(N2CC(C)NC(C)C2)ccc1Nc1ncc(Cl)c(-c2cnc3ccccn23)n1` (centres unmarked) [Example 3.6, 5-chloro-N-[4-(3,5-dimethylpiperazin-1-yl)-2-methoxy-phenyl]-4-imidazo[1,2-a]pyridin-3-yl-pyrimidin-2-amine], the IC50 stood at 0.02 µM.

As to `COc1cc(N2CCN(C(=O)[C@@H]3CCCN3)CC2)ccc1Nc1ncc(Cl)c(-c2cnc3ccccn23)n1` [Example 23, [4-[4-[(5-chloro-4-imidazo[1,2-a]pyridin-3-yl-pyrimidin-2-yl)amino]-3-methoxy-phenyl]piperazin-1-yl]-[(2S)-pyrrolidin-2-yl]methanone], the IC50 turned out to be 0.009 µM.

`COc1cc(C)c(Nc2ncc(Br)c(-c3cnc4ccccn34)n2)cc1OC` [Example 124, 5-bromo-N-(4,5-dimethoxy-2-methyl-phenyl)-4-imidazo[1,2-a]pyridin-3-yl-pyrimidin-2-amine]: the half-inhibitory concentration (IC50) was determined as 0.031 µM.

Regarding `COc1cc(C2CCN(C(C)=O)CC2)ccc1Nc1ncc(C2CC2)c(-c2cnc3c(F)cccn23)n1` [Example 202, 1-[4-[4-[[5-cyclopropyl-4-(8-fluoroimidazo[1,2-a]pyridin-3-yl)pyrimidin-2-yl]amino]-3-methoxy-phenyl]-1-piperidyl]ethanone], the IC50 is 0.096 µM.

On to `COc1cc(OC2CN(C(=O)[C@H](C)O)C2)ccc1Nc1ncc(Cl)c(-c2cnc3ccccn23)n1` [Example 27.1, (2S)-1-[3-[4-[(5-chloro-4-imidazo[1,2-a]pyridin-3-yl-pyrimidin-2-yl)amino]-3-methoxy-phenoxy]azetidin-1-yl]-2-hydroxy-propan-1-one], for which the IC50 stood at 0.031 µM.

For the compound `COc1cc(OC[C@H]2CCCN2)ccc1Nc1ncc(C)c(-c2cnc3ccccn23)n1` [Example 102, 4-imidazo[1,2-a]pyridin-3-yl-N-[2-methoxy-4-[[(2R)-pyrrolidin-2-yl]methoxy]phenyl]-5-methyl-pyrimidin-2-amine], the 50% inhibitory concentration (IC50) turned out to be 0.054 µM.

In the case of `COc1cc(CN2CC[C@@H](O)C2)ccc1Nc1ncc(Cl)c(-c2cnc3ccccn23)n1` [Example 21.18, (3R)-1-[[4-[(5-chloro-4-imidazo[1,2-a]pyridin-3-yl-pyrimidin-2-yl)amino]-3-methoxy-phenyl]methyl]pyrrolidin-3-ol], the IC50 stood at 0.017 µM.
